In ChEMBL document CHEMBL1201862, “PubChem BioAssay data set” (2004):
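48-hour exposure; five concentrations; linearly interpolated endpoints. At the GI50, growth is halved.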 Calls of active or inactive are those of the source. No stated cut-off is given here; in the data, active = GI50 up to about 1.1 µM and inactive = higher.

Tests used:
Test in all cases: NCI tumour cell line growth inhibition, 48 h
COLO 205 = tested on: COLO 205
DU-145 = tested on: DU-145
HCC 2998 = tested on: HCC 2998
HT-29 = tested on: HT-29
KM12 = tested on: KM12
LOX IMVI = tested on: LOX IMVI
MDA-MB-435 = tested on: MDA-MB-435
NCI-H226 = tested on: NCI-H226
OVCAR-4 = tested on: OVCAR-4
OVCAR-5 = tested on: OVCAR-5
RXF 393 = tested on: RXF 393
SF-295 = tested on: SF-295
SF-539 = tested on: SF-539
SK-MEL-5 = tested on: SK-MEL-5
SNB-75 = tested on: SNB-75
SW-620 = tested on: SW-620
T47D = tested on: T47D
TK-10 = tested on: TK-10
U-251 = tested on: U-251
UACC-62 = tested on: UACC-62

| SMILES | GI50 (COLO 205) | GI50 (DU-145) | GI50 (HCC 2998) | GI50 (HT-29) | GI50 (KM12) | GI50 (LOX IMVI) | GI50 (MDA-MB-435) | GI50 (NCI-H226) | GI50 (OVCAR-4) | GI50 (OVCAR-5) | GI50 (RXF 393) | GI50 (SF-295) | GI50 (SF-539) | GI50 (SK-MEL-5) | GI50 (SNB-75) | GI50 (SW-620) | GI50 (T47D) | GI50 (TK-10) | GI50 (U-251) | GI50 (UACC-62) |
| --- | --- | --- | --- | --- | --- | --- | --- | --- | --- | --- | --- | --- | --- | --- | --- | --- | --- | --- | --- | --- |
| COC(=O)c1ccc(Oc2nc3ccc(C(F)(F)F)cc3nc2-c2ccccc2)cc1 | > 100 µM (inactive) | > 100 µM (inactive) | > 100 µM (inactive) | > 100 µM (inactive) | > 100 µM (inactive) | > 100 µM (inactive) | > 100 µM (inactive) | > 100 µM (inactive) | > 100 µM (inactive) | > 100 µM (inactive) | 74.5 µM (inactive) | > 100 µM (inactive) | > 100 µM (inactive) | > 100 µM (inactive) | > 100 µM (inactive) | > 100 µM (inactive) | 56.2 µM (inactive) | > 100 µM (inactive) | > 100 µM (inactive) | > 100 µM (inactive) |
| CC(C)(C)C1CCC2c3c([nH]c4ccccc34)C3C(=O)N(c4ccc([N+](=O)[O-])cc4)C(=O)C3C2C1 (stereo not drawn) | 8.71 µM (inactive) | 26.7 µM (inactive) | 9.14 µM (inactive) | 3.89 µM (inactive) | 1.77 µM (inactive) | 8.34 µM (inactive) | 28.1 µM (inactive) | 13.9 µM (inactive) | 5.62 µM (inactive) | 25.2 µM (inactive) | 10.4 µM (inactive) | 27.2 µM (inactive) | 20.7 µM (inactive) | 12.2 µM (inactive) | 16.9 µM (inactive) | 21 µM (inactive) | 13.9 µM (inactive) | 21.3 µM (inactive) | 15.6 µM (inactive) | 3.12 µM (inactive) |
| CC1=NN(C(=O)CC(=O)Nc2cccc(Cl)c2)C(=O)C1/N=N\c1ccc(S(=O)(=O)c2ccc(/N=N/C3C(=O)N(C(=O)CC(=O)Nc4cccc(Cl)c4)N=C3C)cc2)cc1 (stereo not drawn) | > 100 µM (inactive) | 83.8 µM (inactive) | > 100 µM (inactive) | > 100 µM (inactive) | > 100 µM (inactive) | > 100 µM (inactive) | > 100 µM (inactive) | > 100 µM (inactive) | > 100 µM (inactive) | > 100 µM (inactive) | > 100 µM (inactive) | > 100 µM (inactive) | 22.6 µM (inactive) | 40.8 µM (inactive) | > 100 µM (inactive) | > 100 µM (inactive) | > 100 µM (inactive) | > 100 µM (inactive) | 29.4 µM (inactive) | > 100 µM (inactive) |
| COc1ccc(C2=NN(C(=N)S)C(c3ccccc3)C2)cc1 (stereo not drawn) | 25.8 µM (inactive) | 53.6 µM (inactive) | 44.8 µM (inactive) | 38.9 µM (inactive) | 35.7 µM (inactive) | 38.3 µM (inactive) | 31 µM (inactive) | 34.6 µM (inactive) | 30.3 µM (inactive) | 58.2 µM (inactive) | 24.4 µM (inactive) | 30.3 µM (inactive) | 61.5 µM (inactive) | 16.7 µM (inactive) | 29 µM (inactive) | 52.2 µM (inactive) | 29.9 µM (inactive) | 37.8 µM (inactive) | 38.7 µM (inactive) | 35.3 µM (inactive) |
| CCOc1ccc2nc3nc(O)nc(C)c3c(NCCCN(CC)CC)c2c1 | > 100 µM (inactive) | > 100 µM (inactive) | > 100 µM (inactive) | > 100 µM (inactive) | > 100 µM (inactive) | > 100 µM (inactive) | > 100 µM (inactive) | > 100 µM (inactive) | > 100 µM (inactive) | > 100 µM (inactive) | > 100 µM (inactive) | > 100 µM (inactive) | > 100 µM (inactive) | > 100 µM (inactive) | > 100 µM (inactive) | > 100 µM (inactive) | > 100 µM (inactive) | > 100 µM (inactive) | > 100 µM (inactive) | > 100 µM (inactive) |
| c1cncc(C2(c3cc4ccccc4[nH]3)COCO2)c1 (stereo not drawn) | 19.1 µM (inactive) | > 100 µM (inactive) | > 100 µM (inactive) | > 100 µM (inactive) | > 100 µM (inactive) | > 100 µM (inactive) | > 100 µM (inactive) | > 100 µM (inactive) | 65 µM (inactive) | > 100 µM (inactive) | > 100 µM (inactive) | > 100 µM (inactive) | > 100 µM (inactive) | 38.2 µM (inactive) | > 100 µM (inactive) | > 100 µM (inactive) | > 100 µM (inactive) | > 100 µM (inactive) | > 100 µM (inactive) | 96.8 µM (inactive) |
| COc1ccc2c(c1)CN([C@@H](C)[C@H]1CC[C@H]3[C@@H]4CC[C@H]5C[C@@H](O)CC[C@]5(C)[C@H]4CC[C@]13C)CO2 | 2 µM (inactive) | 4.68 µM (inactive) | 1.61 µM (inactive) | 0.964 µM (active) | 1.75 µM (inactive) | 1.58 µM (inactive) | 1.75 µM (inactive) | 7.36 µM (inactive) | 4.05 µM (inactive) | 3.13 µM (inactive) | 1.19 µM (inactive) | 1.45 µM (inactive) | 1.59 µM (inactive) | 1.69 µM (inactive) | 2.37 µM (inactive) | 2.92 µM (inactive) | 3.56 µM (inactive) | 2.79 µM (inactive) | 1.62 µM (inactive) | 2 µM (inactive) |
| O=C1C2=C(c3ccccc31)C(c1ccccc1)N1C(=O)CSC1=N2 (stereo not drawn) | > 56.4 µM (inactive) | 52.4 µM (inactive) | > 68.1 µM (inactive) | 43.4 µM (inactive) | > 53.6 µM (inactive) | 37.3 µM (inactive) | 17.4 µM (inactive) | 38.5 µM (inactive) | 35.3 µM (inactive) | > 85.5 µM (inactive) | 25.6 µM (inactive) | 41.5 µM (inactive) | > 53.7 µM (inactive) | 36.9 µM (inactive) | 23.3 µM (inactive) | 50.8 µM (inactive) | 29.6 µM (inactive) | > 75.3 µM (inactive) | > 63 µM (inactive) | 37.8 µM (inactive) |
| CCOC(=O)c1cnc2oc(/C=N/N3CC(CN4CCOCC4)OC3=O)cc2c1O (stereo not drawn) | > 100 µM (inactive) | > 100 µM (inactive) | > 100 µM (inactive) | > 100 µM (inactive) | > 100 µM (inactive) | > 100 µM (inactive) | > 100 µM (inactive) | > 100 µM (inactive) | > 100 µM (inactive) | > 100 µM (inactive) | > 100 µM (inactive) | > 100 µM (inactive) | > 100 µM (inactive) | > 100 µM (inactive) | > 100 µM (inactive) | > 100 µM (inactive) | > 100 µM (inactive) | > 100 µM (inactive) | > 100 µM (inactive) | > 100 µM (inactive) |
| COc1cc([C@@H]2c3cc4c(cc3[C@@H](OC3OC5COC(C)OC5C(OC(=O)CN5CCN(C)CC5)C3OC(=O)CN3CCN(C)CC3)C3COC(=O)[C@@H]32)OCO4)cc(OC)c1OC(=O)CN1CCN(C)CC1 (stereo partly drawn) | > 100 µM (inactive) | 44.7 µM (inactive) | 32.1 µM (inactive) | > 100 µM (inactive) | > 100 µM (inactive) | 36.5 µM (inactive) | > 100 µM (inactive) | 50.4 µM (inactive) | > 100 µM (inactive) | > 100 µM (inactive) | > 100 µM (inactive) | 38.1 µM (inactive) | 23.1 µM (inactive) | 43.5 µM (inactive) | 28.5 µM (inactive) | 41.8 µM (inactive) | 71.1 µM (inactive) | > 100 µM (inactive) | 26.9 µM (inactive) | > 100 µM (inactive) |
| CCOc1ccc2c(ccc(/C=C/c3cc(C)c4cccnc4c3O)[n+]2C)c1 | 0.624 µM (active) | 3.62 µM (inactive) | 0.746 µM (active) | 0.378 µM (active) | 0.908 µM (active) | 0.356 µM (active) | 0.929 µM (active) | 0.859 µM (active) | 1.7 µM (inactive) | 1.24 µM (inactive) | 3.71 µM (inactive) | 1.24 µM (inactive) | 0.485 µM (active) | 0.627 µM (active) | 2.29 µM (inactive) | 0.459 µM (active) | 0.54 µM (active) | 0.575 µM (active) | 0.18 µM (active) | 1.53 µM (inactive) |
| O=C(O)CC1C(=O)OC2C3COC(=O)c4cc(O)c(O)c(O)c4-c4c(cc(O)c(O)c4O)C(=O)OC2C(OC(=O)c2cc(O)c(O)c4c2C1C(O)C(=O)O4)C(OC(=O)c1cc(O)c(O)c(O)c1)O3 (stereo not drawn) | 35.1 µM (inactive) | 36.4 µM (inactive) | > 100 µM (inactive) | 13.6 µM (inactive) | 17 µM (inactive) | 14 µM (inactive) | 26.4 µM (inactive) | 30.4 µM (inactive) | 37.9 µM (inactive) | 13.5 µM (inactive) | 4.39 µM (inactive) | 27.8 µM (inactive) | 52.5 µM (inactive) | > 100 µM (inactive) | 3.35 µM (inactive) | 28.8 µM (inactive) | 59.8 µM (inactive) | > 100 µM (inactive) | 23.9 µM (inactive) |  |
| Cc1ccnc2c1ccc1nc3ccccc3n12 | > 100 µM (inactive) | > 100 µM (inactive) | > 100 µM (inactive) | 77.4 µM (inactive) | 22 µM (inactive) | > 100 µM (inactive) | > 100 µM (inactive) | 18.4 µM (inactive) | 37.8 µM (inactive) | > 100 µM (inactive) | 56.2 µM (inactive) | 87.7 µM (inactive) | 58.9 µM (inactive) | 17.7 µM (inactive) | 31.7 µM (inactive) | > 100 µM (inactive) | 18.5 µM (inactive) | > 100 µM (inactive) |  | > 100 µM (inactive) |
